These are literature values, as cited in patent US11197880B2, “Use of eriocitrin compositions for increasing GLP-1 levels” (INGREDIENTS BY NATURE, LLC, priority 2019, dated 2021).

The test system of this data set is mice (C57BL/6J).
Where [1] appears, read: mice (C57BL/6J), eriocitrin 140 mg/kg/day.
Where [2] appears, read: mice supplemented with eriocitrin, previous study.

For the compound `C[C@@H]1O[C@@H](OC[C@H]2O[C@@H](Oc3cc(O)c4c(c3)O[C@H](c3ccc(O)c(O)c3)CC4=O)[C@H](O)[C@@H](O)[C@@H]2O)[C@H](O)[C@H](O)[C@H]1O` [Eriocitrin, eriodictyol 7-O-B-rutinoside], under setting [1], the “inflammatory markers (IL-6 and MCP-1)” value is on record as “decreased inflammatory markers”; the total antioxidant capacity entry is given as “increased total antioxidant capacity”. Under setting [2], the blood glucose result is recorded as “reduced blood glucose” and the insulin sensitivity entry is given as “improved insulin sensitivity”.
